Measurements published in the kinase profiling compilation of Christmann-Franck et al. (2016).
Values joined by “and” are separate entries in the source; they are usually repeats but may differ in a detail not shown here. Identical values can stand only once.

What was measured:
[1] = tested on: RPS6KB1 (human), P23443 [T412E]
[2] = molecular target: PKN2 (human) (UniProt Q16513)
[3] = molecular target: NEK2 (human) (UniProt P51955)
[4] = molecular target: MKNK1 (human) (UniProt Q9BUB5)
[5] = molecular target: RPS6KA3 KD1 KD2 (human) (UniProt P51812)
[6] = molecular target: MAPK1 (human) (UniProt P28482)
[7] = molecular target: PIM1 (human) (UniProt P11309)
[8] = molecular target: MARK3 (human) (UniProt P27448)
[9] = molecular target: NEK6 (human) (UniProt Q9HC98)
[10] = molecular target: DYRK2 (human) (UniProt Q92630)
[11] = molecular target: EPHA2 (human) (UniProt P29317)
[12] = molecular target: MAPK15 (human) (UniProt Q8TD08)
[13] = molecular target: CaMK1 (human) (UniProt Q14012)
[14] = molecular target: CAMKK2 (human) (UniProt Q96RR4)
[15] = molecular target: PDPK1 (human) (UniProt O15530)
[16] = molecular target: MAP2K1 (human) (UniProt Q02750)
[17] = molecular target: BRSK2 (human) (UniProt Q8IWQ3)
[18] = molecular target: MAPKAPK5 (human) (UniProt Q8IW41)
[19] = molecular target: BTK (human) (UniProt Q06187)
[20] = molecular target: RPS6KA5 KD1 KD2 (human) (UniProt O75582)
[21] = molecular target: MAPK9 (human) (UniProt P45984)
[22] = tested on: LCK (mouse); conditions: accession and sequence are those of the human protein
[23] = molecular target: PAK4 (human) (UniProt O96013)
[24] = molecular target: FLT1 (human) (UniProt P17948)
[25] = molecular target: PIM2 (human) (UniProt Q9P1W9)
[26] = molecular target: PHKG1 (human) (UniProt Q16816)
[27] = molecular target: MAPK14 (human) (UniProt Q16539)
[28] = molecular target: MAPK3 (human) (UniProt P27361)
[29] = molecular target: CHEK1 (human) (UniProt O14757)
[30] = molecular target: GSK3B (human) (UniProt P49841)
[31] = molecular target: IKBKE (human) (UniProt Q14164)
[32] = molecular target: CHEK2 (human) (UniProt O96017)
[33] = molecular target: DYRK1A (human) (UniProt Q13627)
[34] = molecular target: IKBKB (human) (UniProt O14920)

Sequence of MAPK15 (human) (Q8TD08 whole entry, looked up): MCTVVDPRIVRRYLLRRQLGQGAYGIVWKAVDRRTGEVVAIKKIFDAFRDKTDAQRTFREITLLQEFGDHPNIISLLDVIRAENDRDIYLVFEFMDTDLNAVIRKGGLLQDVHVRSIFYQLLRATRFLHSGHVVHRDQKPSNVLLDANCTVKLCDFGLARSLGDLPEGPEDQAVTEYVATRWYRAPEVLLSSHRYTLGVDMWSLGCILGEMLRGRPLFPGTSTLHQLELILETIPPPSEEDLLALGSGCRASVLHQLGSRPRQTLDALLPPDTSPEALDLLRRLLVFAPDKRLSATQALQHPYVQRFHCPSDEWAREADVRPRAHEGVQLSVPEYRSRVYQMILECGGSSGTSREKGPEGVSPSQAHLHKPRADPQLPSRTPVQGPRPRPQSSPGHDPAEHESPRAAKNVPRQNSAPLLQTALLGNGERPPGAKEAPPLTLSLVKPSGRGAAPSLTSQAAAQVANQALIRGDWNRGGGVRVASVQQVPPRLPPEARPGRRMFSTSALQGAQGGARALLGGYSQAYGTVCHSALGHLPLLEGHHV
Sequence of DYRK2 (human) (Q92630 whole entry, looked up): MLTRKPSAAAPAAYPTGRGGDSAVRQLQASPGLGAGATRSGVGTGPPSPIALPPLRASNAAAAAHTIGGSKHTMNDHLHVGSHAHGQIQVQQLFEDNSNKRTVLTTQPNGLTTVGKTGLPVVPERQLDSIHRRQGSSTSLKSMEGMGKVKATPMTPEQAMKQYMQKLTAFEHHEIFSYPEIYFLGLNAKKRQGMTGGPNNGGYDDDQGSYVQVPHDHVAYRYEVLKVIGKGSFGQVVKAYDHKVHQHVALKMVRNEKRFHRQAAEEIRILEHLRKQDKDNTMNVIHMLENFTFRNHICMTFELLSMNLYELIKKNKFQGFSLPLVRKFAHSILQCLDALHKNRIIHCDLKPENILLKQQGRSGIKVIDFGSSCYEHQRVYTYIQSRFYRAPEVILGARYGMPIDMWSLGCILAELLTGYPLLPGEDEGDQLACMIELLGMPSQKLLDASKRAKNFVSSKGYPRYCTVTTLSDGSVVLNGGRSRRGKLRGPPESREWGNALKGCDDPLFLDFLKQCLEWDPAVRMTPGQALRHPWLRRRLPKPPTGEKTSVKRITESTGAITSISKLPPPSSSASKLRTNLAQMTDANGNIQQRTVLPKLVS
Sequence of MKNK1 (human) (Q9BUB5 whole entry, looked up): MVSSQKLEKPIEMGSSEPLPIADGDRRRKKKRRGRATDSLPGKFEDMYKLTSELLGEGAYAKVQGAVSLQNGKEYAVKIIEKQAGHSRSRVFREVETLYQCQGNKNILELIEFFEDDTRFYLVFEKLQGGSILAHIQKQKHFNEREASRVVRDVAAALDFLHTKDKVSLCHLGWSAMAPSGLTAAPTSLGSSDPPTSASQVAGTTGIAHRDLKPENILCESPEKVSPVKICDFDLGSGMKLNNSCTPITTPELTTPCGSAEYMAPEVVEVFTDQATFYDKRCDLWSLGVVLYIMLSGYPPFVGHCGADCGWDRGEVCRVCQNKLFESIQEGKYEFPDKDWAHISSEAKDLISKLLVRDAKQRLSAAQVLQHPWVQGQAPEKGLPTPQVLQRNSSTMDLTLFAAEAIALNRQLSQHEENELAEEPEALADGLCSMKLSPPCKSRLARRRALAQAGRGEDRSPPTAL
Sequence of RPS6KA5 KD1 KD2 (human) (O75582 whole entry, looked up): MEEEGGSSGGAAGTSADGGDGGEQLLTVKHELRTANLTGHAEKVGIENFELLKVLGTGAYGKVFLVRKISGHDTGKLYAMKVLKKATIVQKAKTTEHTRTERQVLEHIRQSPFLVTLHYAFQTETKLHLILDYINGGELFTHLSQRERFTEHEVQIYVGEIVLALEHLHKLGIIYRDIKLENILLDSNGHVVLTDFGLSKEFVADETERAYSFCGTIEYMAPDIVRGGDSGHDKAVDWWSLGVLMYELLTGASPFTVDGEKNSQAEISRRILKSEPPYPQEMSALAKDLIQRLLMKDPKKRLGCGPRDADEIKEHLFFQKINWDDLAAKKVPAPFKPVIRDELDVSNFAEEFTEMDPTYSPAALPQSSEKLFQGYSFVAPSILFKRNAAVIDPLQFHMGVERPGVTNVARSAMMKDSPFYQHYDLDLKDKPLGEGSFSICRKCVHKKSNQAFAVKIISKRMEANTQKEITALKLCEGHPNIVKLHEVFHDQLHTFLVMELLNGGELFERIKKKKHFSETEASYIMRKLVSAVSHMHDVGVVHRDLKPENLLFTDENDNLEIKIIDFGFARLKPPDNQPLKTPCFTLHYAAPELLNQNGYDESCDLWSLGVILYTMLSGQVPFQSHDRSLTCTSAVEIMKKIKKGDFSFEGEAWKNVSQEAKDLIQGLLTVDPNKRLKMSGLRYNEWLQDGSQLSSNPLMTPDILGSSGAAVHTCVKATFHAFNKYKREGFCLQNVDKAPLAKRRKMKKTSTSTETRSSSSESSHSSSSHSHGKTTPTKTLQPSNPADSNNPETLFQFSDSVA
Sequence of NEK2 (human) (P51955 whole entry, looked up): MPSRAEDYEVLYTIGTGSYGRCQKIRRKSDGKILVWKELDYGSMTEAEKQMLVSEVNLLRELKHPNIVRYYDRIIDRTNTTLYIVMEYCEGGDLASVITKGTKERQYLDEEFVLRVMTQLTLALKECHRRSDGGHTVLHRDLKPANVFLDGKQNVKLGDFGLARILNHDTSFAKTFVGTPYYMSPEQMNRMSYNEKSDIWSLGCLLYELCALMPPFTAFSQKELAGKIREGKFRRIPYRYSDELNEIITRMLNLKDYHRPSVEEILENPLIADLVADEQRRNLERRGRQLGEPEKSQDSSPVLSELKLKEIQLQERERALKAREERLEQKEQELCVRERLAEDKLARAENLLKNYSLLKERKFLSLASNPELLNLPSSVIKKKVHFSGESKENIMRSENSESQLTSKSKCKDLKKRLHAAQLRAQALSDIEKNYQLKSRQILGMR
Sequence of CHEK2 (human) (O96017 whole entry, looked up): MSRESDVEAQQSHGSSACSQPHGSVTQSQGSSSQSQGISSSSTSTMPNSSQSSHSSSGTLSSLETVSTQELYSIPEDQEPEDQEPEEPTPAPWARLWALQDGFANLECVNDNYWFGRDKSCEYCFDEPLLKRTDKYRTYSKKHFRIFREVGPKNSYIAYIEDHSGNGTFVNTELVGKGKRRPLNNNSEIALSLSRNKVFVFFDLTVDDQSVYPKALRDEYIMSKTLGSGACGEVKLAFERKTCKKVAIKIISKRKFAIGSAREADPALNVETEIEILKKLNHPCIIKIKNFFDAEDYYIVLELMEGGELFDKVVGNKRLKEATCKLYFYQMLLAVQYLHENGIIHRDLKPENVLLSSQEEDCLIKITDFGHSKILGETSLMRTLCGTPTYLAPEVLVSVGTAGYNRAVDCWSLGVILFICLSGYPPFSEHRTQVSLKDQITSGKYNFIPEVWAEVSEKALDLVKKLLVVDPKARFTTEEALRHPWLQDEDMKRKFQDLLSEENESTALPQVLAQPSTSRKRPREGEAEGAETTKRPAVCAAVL
Sequence of PKN2 (human) (Q16513 whole entry, looked up): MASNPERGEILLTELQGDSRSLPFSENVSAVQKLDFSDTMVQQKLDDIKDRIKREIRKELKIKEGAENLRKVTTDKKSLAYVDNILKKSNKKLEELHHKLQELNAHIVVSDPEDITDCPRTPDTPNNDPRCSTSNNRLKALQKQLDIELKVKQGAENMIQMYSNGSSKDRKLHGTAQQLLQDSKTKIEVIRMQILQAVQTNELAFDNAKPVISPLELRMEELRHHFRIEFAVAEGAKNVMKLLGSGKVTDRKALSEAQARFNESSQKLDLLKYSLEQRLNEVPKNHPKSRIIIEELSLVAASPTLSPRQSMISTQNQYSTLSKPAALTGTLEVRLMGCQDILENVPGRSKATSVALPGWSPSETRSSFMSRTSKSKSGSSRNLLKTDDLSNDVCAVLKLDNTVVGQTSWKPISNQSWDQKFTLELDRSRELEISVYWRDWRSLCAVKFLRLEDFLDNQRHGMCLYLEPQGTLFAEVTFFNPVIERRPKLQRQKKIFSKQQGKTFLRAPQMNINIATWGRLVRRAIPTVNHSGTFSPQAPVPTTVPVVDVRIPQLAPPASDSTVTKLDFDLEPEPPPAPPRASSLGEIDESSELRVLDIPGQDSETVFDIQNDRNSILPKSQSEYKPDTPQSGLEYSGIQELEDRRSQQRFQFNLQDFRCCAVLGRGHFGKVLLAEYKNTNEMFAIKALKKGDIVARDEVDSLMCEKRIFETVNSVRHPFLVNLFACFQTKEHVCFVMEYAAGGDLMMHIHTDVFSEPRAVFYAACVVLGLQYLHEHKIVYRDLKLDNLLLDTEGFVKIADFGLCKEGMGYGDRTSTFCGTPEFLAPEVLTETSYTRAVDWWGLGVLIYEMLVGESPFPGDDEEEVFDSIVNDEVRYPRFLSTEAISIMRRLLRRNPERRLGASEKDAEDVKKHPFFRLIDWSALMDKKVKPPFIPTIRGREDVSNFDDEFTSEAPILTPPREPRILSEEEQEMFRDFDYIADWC
Sequence of CAMKK2 (human) (Q96RR4 whole entry, looked up): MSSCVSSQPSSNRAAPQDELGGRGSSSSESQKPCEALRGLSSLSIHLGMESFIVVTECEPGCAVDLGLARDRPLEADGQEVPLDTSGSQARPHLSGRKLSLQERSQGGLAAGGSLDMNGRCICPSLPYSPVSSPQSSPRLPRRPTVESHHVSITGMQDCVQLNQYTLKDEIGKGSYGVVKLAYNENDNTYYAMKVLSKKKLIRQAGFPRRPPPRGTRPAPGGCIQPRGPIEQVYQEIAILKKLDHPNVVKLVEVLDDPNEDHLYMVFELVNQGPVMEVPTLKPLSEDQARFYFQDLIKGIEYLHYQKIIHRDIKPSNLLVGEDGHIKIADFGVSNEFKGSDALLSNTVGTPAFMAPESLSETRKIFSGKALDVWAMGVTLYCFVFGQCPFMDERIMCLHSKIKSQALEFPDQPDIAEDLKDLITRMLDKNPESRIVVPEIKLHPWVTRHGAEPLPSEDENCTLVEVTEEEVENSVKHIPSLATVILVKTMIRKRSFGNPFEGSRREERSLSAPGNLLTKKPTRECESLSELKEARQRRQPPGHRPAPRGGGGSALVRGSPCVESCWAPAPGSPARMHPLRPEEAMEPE

`COC(=O)Nc1ccc(-c2nc(N3CCOCC3)c3cnn(C4CCN(C(=O)OC)CC4)c3n2)cc1` was tested, and the per cent of control ([1]; compound 1.0 µM) was 94%, the per cent of control ([1]; compound 10.0 µM) was 93% and the per cent of control ([2]; compound 1.0 µM) was 117%. It also gave a per cent of control ([2]; compound 10.0 µM) of 101%, a per cent of control ([3]; compound 1.0 µM) of 93% and a per cent of control ([3]; compound 10.0 µM) of 101%. For the same compound, the per cent of control ([4]; compound 1.0 µM) was 96%, the per cent of control ([4]; compound 10.0 µM) was 92% and the per cent of control ([5]; compound 1.0 µM) was 88%. The per cent of control ([5]; compound 10.0 µM) was 87%, the per cent of control ([6]; compound 1.0 µM) was 109% and the per cent of control ([6]; compound 10.0 µM) was 108%. For the same compound, the per cent of control ([7]; compound 1.0 µM) was 117%, the per cent of control ([7]; compound 10.0 µM) was 103% and the per cent of control ([8]; compound 1.0 µM) was 92%. It also gave a per cent of control ([8]; compound 10.0 µM) of 107%, a per cent of control ([9]; compound 1.0 µM) of 96% and a per cent of control ([9]; compound 10.0 µM) of 87%. For the same compound, the per cent of control ([10]; compound 1.0 µM) was 92%, the per cent of control ([10]; compound 10.0 µM) was 96% and the per cent of control ([11]; compound 1.0 µM) was 106%. It also gave a per cent of control ([11]; compound 10.0 µM) of 104%, a per cent of control ([12]; compound 1.0 µM) of 94% and a per cent of control ([12]; compound 10.0 µM) of 98%. It also gave a per cent of control ([13]; compound 1.0 µM) of 97%, a per cent of control ([13]; compound 10.0 µM) of 102% and a per cent of control ([14]; compound 1.0 µM) of 102%. The per cent of control ([14]; compound 10.0 µM) was 95%, the per cent of control ([15]; compound 1.0 µM) was 98% and 100% and the per cent of control ([15]; compound 10.0 µM) was 80% and 101%. For the same compound, the per cent of control ([16]; compound 1.0 µM) was 82%, the per cent of control ([16]; compound 10.0 µM) was 79% and the per cent of control ([17]; compound 1.0 µM) was 95%. For the same compound, the per cent of control ([17]; compound 10.0 µM) was 88%, the per cent of control ([18]; compound 1.0 µM) was 98% and the per cent of control ([18]; compound 10.0 µM) was 74%. The per cent of control ([19]; compound 1.0 µM) was 116%, the per cent of control ([19]; compound 10.0 µM) was 99% and the per cent of control ([20]; compound 1.0 µM) was 83%. It also gave a per cent of control ([20]; compound 10.0 µM) of 86%, a per cent of control ([21]; compound 1.0 µM) of 92% and a per cent of control ([21]; compound 10.0 µM) of 89%. The per cent of control ([22]; compound 1.0 µM) was 100%, the per cent of control ([22]; compound 10.0 µM) was 91% and the per cent of control ([23]; compound 1.0 µM) was 93%. It also gave a per cent of control ([23]; compound 10.0 µM) of 97%, a per cent of control ([24]; compound 1.0 µM) of 100% and a per cent of control ([24]; compound 10.0 µM) of 88%. The per cent of control ([25]; compound 1.0 µM) was 81%, the per cent of control ([25]; compound 10.0 µM) was 80% and the per cent of control ([26]; compound 1.0 µM) was 108%. The per cent of control ([26]; compound 10.0 µM) was 93%, the per cent of control ([27]; compound 1.0 µM) was 97% and the per cent of control ([27]; compound 10.0 µM) was 88%. For the same compound, the per cent of control ([28]; compound 1.0 µM) was 90%, the per cent of control ([28]; compound 10.0 µM) was 97% and the per cent of control ([29]; compound 1.0 µM) was 96%. The per cent of control ([29]; compound 10.0 µM) was 92%, the per cent of control ([30]; compound 1.0 µM) was 86% and the per cent of control ([30]; compound 10.0 µM) was 93%. It also gave a per cent of control ([31]; compound 1.0 µM) of 90%, a per cent of control ([31]; compound 10.0 µM) of 90% and a per cent of control ([32]; compound 1.0 µM) of 86%. It also gave a per cent of control ([32]; compound 10.0 µM) of 88%, a per cent of control ([33]; compound 1.0 µM) of 111% and a per cent of control ([33]; compound 10.0 µM) of 90%. For the same compound, the per cent of control ([34]; compound 1.0 µM) was 97% and the per cent of control ([34]; compound 10.0 µM) was 100%.

In the case of `CC(C)n1nc(-c2cc3cc(O)ccc3[nH]2)c2c(N)ncnc21`, the per cent of control ([1]; compound 1.0 µM) is reported as 80%, the per cent of control ([1]; compound 10.0 µM) is reported as 50% and the per cent of control ([2]; compound 1.0 µM) is reported as 68%. It also gave a per cent of control ([2]; compound 10.0 µM) of 22%, a per cent of control ([3]; compound 1.0 µM) of 86% and a per cent of control ([3]; compound 10.0 µM) of 54%. It also gave a per cent of control ([4]; compound 1.0 µM) of 51%, a per cent of control ([4]; compound 10.0 µM) of 12% and a per cent of control ([5]; compound 1.0 µM) of 63%. It also gave a per cent of control ([5]; compound 10.0 µM) of 16%, a per cent of control ([6]; compound 1.0 µM) of 106% and a per cent of control ([6]; compound 10.0 µM) of 88%. The per cent of control ([7]; compound 1.0 µM) was 74%, the per cent of control ([7]; compound 10.0 µM) was 21% and the per cent of control ([8]; compound 1.0 µM) was 67%. The per cent of control ([8]; compound 10.0 µM) was 31%, the per cent of control ([9]; compound 1.0 µM) was 99% and the per cent of control ([9]; compound 10.0 µM) was 96%. For the same compound, the per cent of control ([10]; compound 1.0 µM) was 17%, the per cent of control ([10]; compound 10.0 µM) was 7% and the per cent of control ([11]; compound 1.0 µM) was 12%. The per cent of control ([11]; compound 10.0 µM) was 3%, the per cent of control ([12]; compound 1.0 µM) was 50% and the per cent of control ([12]; compound 10.0 µM) was 6%. It also gave a per cent of control ([13]; compound 1.0 µM) of 80%, a per cent of control ([13]; compound 10.0 µM) of 33% and a per cent of control ([14]; compound 1.0 µM) of 72%. The per cent of control ([14]; compound 10.0 µM) was 30%, the per cent of control ([15]; compound 1.0 µM) was 83% and 93% and the per cent of control ([15]; compound 10.0 µM) was 60% and 71%. It also gave a per cent of control ([16]; compound 1.0 µM) of 25%, a per cent of control ([16]; compound 10.0 µM) of 10% and a per cent of control ([17]; compound 1.0 µM) of 26%. For the same compound, the per cent of control ([17]; compound 10.0 µM) was 4%, the per cent of control ([18]; compound 1.0 µM) was 97% and the per cent of control ([18]; compound 10.0 µM) was 92%. For the same compound, the per cent of control ([19]; compound 1.0 µM) was 20%, the per cent of control ([19]; compound 10.0 µM) was 5% and the per cent of control ([20]; compound 1.0 µM) was 105%. The per cent of control ([20]; compound 10.0 µM) was 49%, the per cent of control ([21]; compound 1.0 µM) was 103% and the per cent of control ([22]; compound 1.0 µM) was 13%. The per cent of control ([22]; compound 10.0 µM) was 4%, the per cent of control ([23]; compound 1.0 µM) was 88% and the per cent of control ([23]; compound 10.0 µM) was 28%. For the same compound, the per cent of control ([24]; compound 1.0 µM) was 11%, the per cent of control ([24]; compound 10.0 µM) was 2% and the per cent of control ([25]; compound 1.0 µM) was 110%. The per cent of control ([25]; compound 10.0 µM) was 36%, the per cent of control ([26]; compound 1.0 µM) was 72% and the per cent of control ([26]; compound 10.0 µM) was 25%. It also gave a per cent of control ([27]; compound 1.0 µM) of 95%, a per cent of control ([27]; compound 10.0 µM) of 90% and a per cent of control ([28]; compound 1.0 µM) of 88%. It also gave a per cent of control ([28]; compound 10.0 µM) of 81%, a per cent of control ([29]; compound 1.0 µM) of 91% and a per cent of control ([29]; compound 10.0 µM) of 34%. For the same compound, the per cent of control ([30]; compound 1.0 µM) was 103%, the per cent of control ([30]; compound 10.0 µM) was 60% and the per cent of control ([31]; compound 1.0 µM) was 86%. It also gave a per cent of control ([31]; compound 10.0 µM) of 64%, a per cent of control ([32]; compound 1.0 µM) of 31% and a per cent of control ([32]; compound 10.0 µM) of 2%. The per cent of control ([33]; compound 1.0 µM) was 84%, the per cent of control ([33]; compound 10.0 µM) was 55% and the per cent of control ([34]; compound 1.0 µM) was 85%. It also gave a per cent of control ([34]; compound 10.0 µM) of 84%.
